Earlier results as cited in patent publication US20240000780A1, “PED5 INHIBITOR SEMI-SOLID COMPOSITIONS AND METHODS OF MAKING AND USING THEREOF” (Seattle Gummy Company, priority 2021, published 2024).

Details: ranking among alpha, beta, gamma cyclodextrins

| Structure (SMILES) | stability of complex formed with tadalafil |
| --- | --- |
| OC[C@H]1O[C@@H]2O[C@H]3[C@H](O)[C@@H](O)[C@@H](O[C@H]4[C@H](O)[C@@H](O)[C@@H](O[C@H]5[C@H](O)[C@@H](O)[C@@H](O[C@H]6[C@H](O)[C@@H](O)[C@@H](O[C@H]7[C@H](O)[C@@H](O)[C@@H](O[C@H]8[C@H](O)[C@@H](O)[C@@H](O[C@H]9[C@H](O)[C@@H](O)[C@@H](O[C@H]1[C@H](O)[C@H]2O)O[C@@H]9CO)O[C@@H]8CO)O[C@@H]7CO)O[C@@H]6CO)O[C@@H]5CO)O[C@@H]4CO)O[C@@H]3CO [gamma, gamma-cyclodextrin] | most stable complex |
| OC[C@H]1O[C@@H]2O[C@H]3[C@H](O)[C@@H](O)[C@@H](O[C@H]4[C@H](O)[C@@H](O)[C@@H](O[C@H]5[C@H](O)[C@@H](O)[C@@H](O[C@H]6[C@H](O)[C@@H](O)[C@@H](O[C@H]7[C@H](O)[C@@H](O)[C@@H](O[C@H]1[C@H](O)[C@H]2O)O[C@@H]7CO)O[C@@H]6CO)O[C@@H]5CO)O[C@@H]4CO)O[C@@H]3CO [alpha, alpha-cyclodextrin] | least stable |
